This is an account of results in patent US8785470B2, “Heterocyclic compounds and uses thereof” (Infinity Pharmaceuticals, Inc., priority 2011, dated 2014).

One assay addresses T1, PI3Kγ (Homo sapiens, UniProt P48736).
T1 construct: purchased Millipore Corporation 14-558-K
As to the kind of experiment: PI3-Kinase HTRF assay, PI3Kγ. To be noted: bins Greater than 10 μM and Greater than 1 μM to 10 μM; 10 μM ATP, PIP2 at 10 μM. The format is biochemical. The text has this:
(§1) A PI3-Kinase HTRF® assay kit (cat No. 33-016) purchased from Millipore Corporation was used to screen compounds provided herein. This assay used specific, high affinity binding of the GRPI pleckstrin homology (PH) domain to PIP3, the product of a Class 1A or 1B PI3 Kinase acting on its physiological substrate PIP2. During the detection phase of the assay, a complex was generated between the GST-tagged PH domain and biotinylated short chain PIP3. The biotinylated PIP3 and the GST-tagged PH domain recruited fluorophores (Streptavidin-Allophycocyanin and Europium-labeled anti-GST respectively) to form the fluorescence resonance energy transfer (FRET) architecture, generating a stable time-resolved FRET signal. The FRET complex was disrupted in a competitive manner by non-biotinylated PIP3, a product formed in the PI3 Kinase assay.
(§2) PI3 Kinase α, β, γ and δ activity was assayed using the PI3 Kinase HTRF® assay kit (catalogue No. 33-016) purchased from Millipore Corporation. Purified recombinant PI3Kα (catalogue No. 14-602-K), PI3Kβ (catalogue No. 14-603-K), PI3Kγ (catalogue No. 14-558-K) and PI3Kδ (catalogue No. 14-604-K) were obtained from Millipore Corporation. Purified recombinant PI3K enzyme was used to catalyze the phosphorylation of phosphatidylinositol 4,5-bisphosphate (PIP2 at 10 μM) to phosphatidylinositol 3,4,5-trisphosphate (PIP3) in the presence of 10 μM ATP. The assay was carried out in 384-well format and detected using a Perkin Elmer EnVision Xcite Multilabel Reader. Emission ratios were converted into percent inhibitions and imported into GraphPad Prism software. The concentration necessary to achieve inhibition of enzyme activity by 50% (IC50) was calculated using concentrations ranging from 20 μM to 0.1 nM (12-point curve). IC50 values were determined using a nonlinear regression model available in GraphPad Prism 5. […]

Another assay concerns the target T2, PI3Kδ (Homo sapiens, UniProt O00329).
T2 construct: purchased Millipore Corporation 14-604-K
As to the kind of experiment: PI3-Kinase HTRF assay, PI3Kδ. To be noted: bins Greater than 10 μM and Greater than 1 μM to 10 μM; 10 μM ATP, PIP2 at 10 μM. The class given is biochemical.
Excerpt: as §1, §2

The subject of another assay is Balb/c splenic B cells. Kind of assay: B cell activation and proliferation assay. The class given is cell-based. To be noted: Mus musculus, Greater than 1 μM to 10 μM, read-out: B cell proliferation EC50. Summed up: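 Balb/c splenic B cells were isolated by Ficoll gradient and magnetic separation, plated at 50.000 cells/well in RPMI/10% FBS, and pre-incubated with compound for 30 min at 37° C (0.2% DMSO). Cells were stimulated for 72 h with a cocktail of 10 μg/ml LPS or 5 μg/ml anti-mouse IgM F(ab′)2 plus 2 ng/ml IL4. Alamar Blue fluorescence (560Ex/590Em) after 5 h gave IC50 or EC50.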

The subject of assay [1] is phospho-AKT in RAJI cells (PI3Kδ). As to the kind of experiment: PI3Kδ selective assay, phospho-AKT in RAJI cells. To be noted: RAJI cells stimulated with anti-human IgM; read-out: IC50 for phospho-AKT, RAJI cell model. The format is cell-based. Summed up: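 Serum-starved RAJI B-lymphoma cells stimulated with anti-human IgM to trigger B-cell receptor signaling; compound effect read as reduction of phospho-AKT, for example detected with phospho-AKT antibodies.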

In assay [2] the test system is phospho-AKT in RAW 264.7 cells (PI3Kγ). As to the kind of experiment: PI3Kγ selective assay, phospho-AKT in RAW 264.7 cells. To be noted: Mus musculus, RAW264.7, stimulated with C5a, read-out: IC50 for phospho-AKT, RAW 264.7 cell model. The format is cell-based. Summed up:
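Serum-starved RAW 264.7 macrophages are stimulated with the GPCR agonist C5a and treated with compound before, with or after stimulation. Inhibition is read as reduced C5a-induced phospho-AKT, detected for example with phospho-AKT antibodies.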

The next assay has as its target T3, PI3Kα (Homo sapiens, UniProt P42336).
T3 construct: purchased Millipore Corporation 14-602-K
Kind of assay: PI3-Kinase HTRF assay, PI3Kα. The format is biochemical. To be noted: bins Greater than 10 μM and Greater than 1 μM to 10 μM; 10 μM ATP, PIP2 at 10 μM; read-out: IC50 P13Kα. Summed up:
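Purified recombinant human PI3Kα, β, γ or δ (0.25-0.3 μg/ml) preincubated 15 min at room temperature with compound (2% DMSO) and 10 μM PIP2, then reacted 1 h with 10 μM ATP. PIP3 product detected by competitive HTRF (GST-PH domain/biotin-PIP3); IC50 from 12-point curves, 20 μM to 0.1 nM, by nonlinear regression.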
Background: TR-FRET usually uses a lanthanide donor and a delayed reading to cut background.

Where two headings read alike, the source gives them in different places.

T2 sequence (O00329 whole entry): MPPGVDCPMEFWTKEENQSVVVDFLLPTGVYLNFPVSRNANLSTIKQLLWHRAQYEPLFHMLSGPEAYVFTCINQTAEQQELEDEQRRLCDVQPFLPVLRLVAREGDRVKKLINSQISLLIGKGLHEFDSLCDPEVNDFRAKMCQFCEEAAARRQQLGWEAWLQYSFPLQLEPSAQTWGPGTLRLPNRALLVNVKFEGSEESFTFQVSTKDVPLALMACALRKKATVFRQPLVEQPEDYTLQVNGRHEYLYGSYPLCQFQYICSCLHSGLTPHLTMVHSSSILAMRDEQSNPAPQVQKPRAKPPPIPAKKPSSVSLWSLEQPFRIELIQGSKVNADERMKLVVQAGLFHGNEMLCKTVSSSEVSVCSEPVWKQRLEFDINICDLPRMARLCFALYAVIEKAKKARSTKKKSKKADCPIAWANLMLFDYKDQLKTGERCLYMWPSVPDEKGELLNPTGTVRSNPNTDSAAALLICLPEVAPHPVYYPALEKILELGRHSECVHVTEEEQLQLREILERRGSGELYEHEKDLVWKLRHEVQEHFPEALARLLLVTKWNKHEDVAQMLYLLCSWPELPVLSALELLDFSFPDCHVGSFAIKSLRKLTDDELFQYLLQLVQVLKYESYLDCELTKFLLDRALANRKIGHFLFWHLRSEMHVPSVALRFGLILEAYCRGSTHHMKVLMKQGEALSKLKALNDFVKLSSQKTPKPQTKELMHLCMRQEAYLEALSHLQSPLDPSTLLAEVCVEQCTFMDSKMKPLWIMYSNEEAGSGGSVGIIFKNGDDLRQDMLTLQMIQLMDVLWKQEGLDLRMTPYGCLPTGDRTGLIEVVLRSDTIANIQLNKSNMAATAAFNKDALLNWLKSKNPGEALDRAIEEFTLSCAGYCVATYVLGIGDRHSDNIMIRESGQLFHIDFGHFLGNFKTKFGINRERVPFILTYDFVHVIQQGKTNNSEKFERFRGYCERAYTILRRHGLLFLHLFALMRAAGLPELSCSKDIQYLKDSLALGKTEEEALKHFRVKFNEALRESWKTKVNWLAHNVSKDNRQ
T2 sequence (P27986 whole entry partner): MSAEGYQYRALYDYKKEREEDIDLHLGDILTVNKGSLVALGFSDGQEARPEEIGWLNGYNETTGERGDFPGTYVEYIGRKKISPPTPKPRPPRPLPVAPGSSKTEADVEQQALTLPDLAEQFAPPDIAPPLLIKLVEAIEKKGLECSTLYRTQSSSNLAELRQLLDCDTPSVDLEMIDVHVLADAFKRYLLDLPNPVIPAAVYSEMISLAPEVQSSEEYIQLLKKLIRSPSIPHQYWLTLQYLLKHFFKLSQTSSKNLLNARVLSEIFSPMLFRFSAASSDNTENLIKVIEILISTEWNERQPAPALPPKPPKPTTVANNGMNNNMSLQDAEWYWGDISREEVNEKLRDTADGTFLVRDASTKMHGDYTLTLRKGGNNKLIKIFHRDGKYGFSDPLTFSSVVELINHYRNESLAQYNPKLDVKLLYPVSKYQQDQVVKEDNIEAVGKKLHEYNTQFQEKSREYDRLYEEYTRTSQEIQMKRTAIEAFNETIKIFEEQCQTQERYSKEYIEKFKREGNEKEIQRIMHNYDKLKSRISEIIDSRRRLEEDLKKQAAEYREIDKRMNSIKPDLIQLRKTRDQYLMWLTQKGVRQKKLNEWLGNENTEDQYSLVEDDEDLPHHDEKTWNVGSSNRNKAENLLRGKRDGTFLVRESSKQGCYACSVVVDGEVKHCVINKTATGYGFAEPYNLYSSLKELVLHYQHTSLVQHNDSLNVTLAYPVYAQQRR
T1 sequence (P48736 whole entry): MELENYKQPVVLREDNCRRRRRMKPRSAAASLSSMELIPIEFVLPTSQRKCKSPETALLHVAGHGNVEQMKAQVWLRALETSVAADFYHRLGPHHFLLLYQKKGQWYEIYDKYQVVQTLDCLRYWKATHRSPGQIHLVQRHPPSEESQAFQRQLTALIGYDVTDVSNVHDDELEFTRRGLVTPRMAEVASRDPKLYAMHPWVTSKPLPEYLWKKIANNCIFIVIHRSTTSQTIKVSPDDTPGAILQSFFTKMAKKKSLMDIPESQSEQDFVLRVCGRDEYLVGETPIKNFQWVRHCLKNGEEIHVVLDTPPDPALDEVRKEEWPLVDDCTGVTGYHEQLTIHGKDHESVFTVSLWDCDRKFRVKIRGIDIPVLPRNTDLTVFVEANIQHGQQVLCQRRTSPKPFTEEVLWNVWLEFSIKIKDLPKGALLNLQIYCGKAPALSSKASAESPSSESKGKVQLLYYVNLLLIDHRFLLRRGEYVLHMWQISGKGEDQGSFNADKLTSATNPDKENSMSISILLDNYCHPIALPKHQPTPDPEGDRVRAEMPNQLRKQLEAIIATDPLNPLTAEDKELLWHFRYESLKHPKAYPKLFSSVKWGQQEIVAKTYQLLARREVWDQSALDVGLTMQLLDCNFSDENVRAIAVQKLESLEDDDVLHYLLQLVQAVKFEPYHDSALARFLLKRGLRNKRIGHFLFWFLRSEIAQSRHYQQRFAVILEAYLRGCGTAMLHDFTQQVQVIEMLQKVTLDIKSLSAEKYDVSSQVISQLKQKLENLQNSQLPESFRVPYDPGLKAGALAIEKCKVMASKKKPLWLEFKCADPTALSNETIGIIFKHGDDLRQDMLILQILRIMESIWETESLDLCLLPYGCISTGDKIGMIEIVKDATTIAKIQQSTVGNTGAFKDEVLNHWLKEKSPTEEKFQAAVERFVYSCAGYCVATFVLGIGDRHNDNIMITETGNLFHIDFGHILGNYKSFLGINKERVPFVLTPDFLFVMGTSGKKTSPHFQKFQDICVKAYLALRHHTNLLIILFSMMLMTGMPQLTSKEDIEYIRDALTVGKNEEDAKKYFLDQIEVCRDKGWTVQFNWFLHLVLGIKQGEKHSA
T3 sequence (P42336 whole entry): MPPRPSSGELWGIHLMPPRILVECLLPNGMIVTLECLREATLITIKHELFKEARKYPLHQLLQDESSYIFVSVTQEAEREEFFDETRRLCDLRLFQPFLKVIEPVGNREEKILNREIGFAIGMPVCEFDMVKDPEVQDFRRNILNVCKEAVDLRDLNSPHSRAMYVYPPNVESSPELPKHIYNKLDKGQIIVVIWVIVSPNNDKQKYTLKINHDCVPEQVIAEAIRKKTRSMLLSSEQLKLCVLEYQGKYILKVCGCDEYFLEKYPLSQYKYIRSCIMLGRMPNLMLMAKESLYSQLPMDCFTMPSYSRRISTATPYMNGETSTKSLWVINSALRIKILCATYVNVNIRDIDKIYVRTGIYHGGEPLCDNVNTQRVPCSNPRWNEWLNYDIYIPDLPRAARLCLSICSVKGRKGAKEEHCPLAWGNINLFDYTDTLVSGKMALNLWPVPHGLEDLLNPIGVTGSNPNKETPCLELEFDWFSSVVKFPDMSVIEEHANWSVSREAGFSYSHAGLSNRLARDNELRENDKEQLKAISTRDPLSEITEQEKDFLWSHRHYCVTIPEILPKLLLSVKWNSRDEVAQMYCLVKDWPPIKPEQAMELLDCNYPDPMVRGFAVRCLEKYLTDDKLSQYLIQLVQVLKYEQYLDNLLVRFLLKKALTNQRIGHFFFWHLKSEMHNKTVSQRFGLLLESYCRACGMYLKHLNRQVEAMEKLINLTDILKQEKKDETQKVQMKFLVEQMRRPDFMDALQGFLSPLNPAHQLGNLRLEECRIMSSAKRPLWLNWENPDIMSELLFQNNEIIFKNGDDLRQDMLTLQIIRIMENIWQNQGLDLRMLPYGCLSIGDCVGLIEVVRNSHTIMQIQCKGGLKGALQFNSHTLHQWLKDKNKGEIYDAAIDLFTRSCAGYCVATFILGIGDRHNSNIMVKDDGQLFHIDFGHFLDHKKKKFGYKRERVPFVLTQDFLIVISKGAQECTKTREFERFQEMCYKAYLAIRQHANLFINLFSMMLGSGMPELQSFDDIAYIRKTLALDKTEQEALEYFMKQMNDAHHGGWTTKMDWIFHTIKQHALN
T3 sequence (P27986 whole entry partner): as the sequence (P27986 whole entry partner) above

In general, IC50 refers to the midpoint of a concentration-inhibition curve. As for `C[C@H](Nc1nc(Cl)ncc1[N+](=O)[O-])c1cc2cccc(Cl)c2c(=O)n1-c1ccccc1` [Compound 75, (S)-8-chloro-3-(1-(2-chloro-5-nitropyrimidin-4-ylamino)ethyl)-2-phenylisoquinolin-1(2H)-one], the IC50 at PI3Kγ was in the range of 1000 to 10000 nM.

With `C[C@H](Nc1cc(Cl)ncn1)c1cc2cccc(Cl)c2c(=O)n1-c1ccccc1` [Compound 77, (S)-8-chloro-3-(1-(6-chloropyrimidin-4-ylamino)ethyl)-2-phenylisoquinolin-1(2H)-one], the IC50 on PI3Kγ and at PI3Kδ was 1000 to 10000 nM throughout.

`C[C@H](Nc1cc(N)ncn1)c1cc2cccc(Cl)c2c(=O)n1-c1ccccc1` [Compound 78, (S)-3-(1-(6-aminopyrimidin-4-ylamino)ethyl)-8-chloro-2-phenylisoquinolin-1(2H)-one] returned a half-inhibitory concentration (IC50) at PI3Kγ of 1000 to 10000 nM.

As for `COc1cc(-c2cccc3cc([C@H](C)Nc4nc(N)ncc4C(=O)N(C)CCO)n(-c4ccccc4)c(=O)c23)ccn1` [Compound 114], the IC50 at PI3Kγ and on PI3Kδ was 1000 to 10000 nM throughout.

Regarding `COc1cc(-c2cccc3cc([C@H](C)Nc4nc(N)ncc4C(=O)N4CCOCC4)n(-c4ccccc4)c(=O)c23)ccn1` [Compound 119], the half-maximal inhibitory concentration (IC50) against PI3Kγ and against PI3Kδ was 1000 to 10000 nM throughout.

On to `CC(=O)Nc1cnc(N)nc1N[C@@H](C)c1cc2cccc(Cl)c2c(=O)n1-c1ccccc1` [Compound 173], for which the IC50 on PI3Kγ was in the range of 1000 to 10000 nM.

Regarding `C[C@H](Nc1nc(N)ncc1NC(=O)c1ccccc1)c1cc2cccc(Cl)c2c(=O)n1-c1ccccc1` [Compound 175], the IC50 on PI3Kγ and at PI3Kδ was 1000 to 10000 nM in each case.

`C[C@H](Nc1nc(N)ncc1C#N)c1cc2cccc(-c3ccn(C)c(=O)c3)c2c(=O)n1-c1ccccc1` [Compound 182]: the IC50 at PI3Kγ and on PI3Kδ was 1000 to 10000 nM each time.

For `COc1cc(N[C@@H](C)c2cc3cccc(Cl)c3c(=O)n2-c2ccccc2)nc(N)n1` [Compound 211], the half-inhibitory concentration (IC50) on PI3Kγ and against PI3Kδ was 1000 to 10000 nM throughout. Further, in the assay on Balb/c splenic B cells, the EC50 was in the range of 1000 to 10000 nM.

As for `COC(=O)c1cccc(-n2c([C@H](C)Nc3nc(N)ncc3C#N)cc3cccc(Cl)c3c2=O)c1` [Compound 316], the IC50 at PI3Kγ is 1000 to 10000 nM; in assay [1], less than 100 nM; in assay [2] (ranges less than 100 nM and between 100 nM and 1 μM (given as 100-1000)) it was less than 100 nM; at PI3Kα it was 1000 to 10000 nM.

Turning to `COc1ncc(-c2cccc3cc([C@H](C)Nc4nc(N)ncc4C#N)n(-c4ccon4)c(=O)c23)cn1` [Compound 333], the concentration for half-maximal inhibition (IC50) at PI3Kγ is 1000 to 10000 nM; in assay [1] it was less than 100 nM; in assay [2] (range between 1 μM and 10 μM), 1000 to 10000 nM.

`Cc1ncc(-c2cccc3cc([C@H](C)Nc4nc(N)ncc4C#N)n(-c4ccon4)c(=O)c23)cn1` [Compound 334]: the IC50 at PI3Kγ is 1000 to 10000 nM; in assay [1] it was less than 100 nM; in assay [2] (range between 1 μM and 10 μM), 1000 to 10000 nM.

`COc1ncc(-c2cccc3cc([C@H](C)Nc4ncnc(N)c4C#N)n(-c4ccon4)c(=O)c23)cn1` [Compound 337]: the concentration for half-maximal inhibition (IC50) was 1000 to 10000 nM on PI3Kγ; less than 100 nM in assay [1]; 1000 to 10000 nM in assay [2] (range between 1 μM and 10 μM); 1000 to 10000 nM on PI3Kα.

`C[C@H](Nc1ncnc(N)c1C#N)c1cc2cccc(Cl)c2c(C(=O)NC2CCOCC2)n1` [Compound 353]: the half-maximal inhibitory concentration (IC50) at PI3Kγ is 1000 to 10000 nM; in assay [1], less than 100 nM; in assay [2] (range between 1 μM and 10 μM), 1000 to 10000 nM.

For the compound `C[C@H](Nc1nc(N)ncc1C(=O)N1CC(F)(F)C1)c1cc2cccc(Cl)c2c(=O)n1-c1ccccc1` [Compound 434], the IC50 at PI3Kγ and against PI3Kδ was 1000 to 10000 nM each time.

For the compound `COc1cc(-c2cccc3cc([C@H](C)Nc4nc(N)ncc4C(=O)NC4CC4)n(-c4ccccc4)c(=O)c23)ccn1` [Compound 441], the half-maximal inhibitory concentration (IC50) against PI3Kγ and on PI3Kδ was 1000 to 10000 nM each time. The EC50 in the assay with Balb/c splenic B cells is 1000 to 10000 nM.
